Values quoted from earlier work, collected in patent US20070116778A1 (priority 2005, published 2007).

Tests used:
HIV = settings: human, in vivo

CCCCCCCCCCCC(=O)OCC(O)CO (stereo not drawn) [Monolaurin]
effect on the pathogen (Neisseria gonorrhoae): dissolves the outer lipid membrane and interferes with transcriptinase production
patients with reduced viral load (HIV): 8 patients
side effects (HIV): without any side effects
